Measurements reported in patent US10399940B2, “Substituted pyrrolidines and methods of use” (AbbVie S.à.r.l., priority 2016, dated 2019).
Like-named read-outs stand apart in the source and are kept apart here.

Biological target: T1, F508delCFTR (Homo sapiens, UniProt P13569, DEL508-508)
T1 construct: expressed in transfected cells; host or cells: CFBE41o- (human lung derived epithelial cell line), doxycycline-inducible expression
Assay: Cell Surface Expression-Horse Radish Peroxidase (CSE-HRP) assay
Type: cell-based
Settings: CFBE41o-F508delCFTR-HRP cells; for Maximum % activity (with co-corrector): with co-corrector (2 μM); for Maximum % activity (with co-corrector) / Maximum % activity (without co-corrector): normalized to on-plate positive control, highest concentration 20 μM
Outline: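 CFBE41o- cells expressed F508delCFTR with HRP in the fourth exofacial loop, induced by 0.5 μg/mL doxycycline for 72 h at 37 °C. Compounds alone or with 2 μM co-corrector ran 18–24 h at 33 °C, 8-point 3-fold from 20 μM. Washed-cell luminol luminescence was normalized to DMSO and positive control, fitted sigmoidally for EC50 (three plates).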

[1] = test compound without co-corrector, 18-24 hours at 33° C., read-out: EC50 (without co-corrector)
[2] = with co-corrector (2 μM of 3-[(2R,4R)-4-({[1-(2,2-difluoro-1,3-benzodioxol-5-yl)cyclopropyl]carbonyl}amino)-7-methoxy-3,4-dihydro-2H-chromen-2-yl]benzoic acid), read-out: EC50 (with co-corrector)

T1 sequence (P13569 with tags, fused parts or gaps DEL508-508): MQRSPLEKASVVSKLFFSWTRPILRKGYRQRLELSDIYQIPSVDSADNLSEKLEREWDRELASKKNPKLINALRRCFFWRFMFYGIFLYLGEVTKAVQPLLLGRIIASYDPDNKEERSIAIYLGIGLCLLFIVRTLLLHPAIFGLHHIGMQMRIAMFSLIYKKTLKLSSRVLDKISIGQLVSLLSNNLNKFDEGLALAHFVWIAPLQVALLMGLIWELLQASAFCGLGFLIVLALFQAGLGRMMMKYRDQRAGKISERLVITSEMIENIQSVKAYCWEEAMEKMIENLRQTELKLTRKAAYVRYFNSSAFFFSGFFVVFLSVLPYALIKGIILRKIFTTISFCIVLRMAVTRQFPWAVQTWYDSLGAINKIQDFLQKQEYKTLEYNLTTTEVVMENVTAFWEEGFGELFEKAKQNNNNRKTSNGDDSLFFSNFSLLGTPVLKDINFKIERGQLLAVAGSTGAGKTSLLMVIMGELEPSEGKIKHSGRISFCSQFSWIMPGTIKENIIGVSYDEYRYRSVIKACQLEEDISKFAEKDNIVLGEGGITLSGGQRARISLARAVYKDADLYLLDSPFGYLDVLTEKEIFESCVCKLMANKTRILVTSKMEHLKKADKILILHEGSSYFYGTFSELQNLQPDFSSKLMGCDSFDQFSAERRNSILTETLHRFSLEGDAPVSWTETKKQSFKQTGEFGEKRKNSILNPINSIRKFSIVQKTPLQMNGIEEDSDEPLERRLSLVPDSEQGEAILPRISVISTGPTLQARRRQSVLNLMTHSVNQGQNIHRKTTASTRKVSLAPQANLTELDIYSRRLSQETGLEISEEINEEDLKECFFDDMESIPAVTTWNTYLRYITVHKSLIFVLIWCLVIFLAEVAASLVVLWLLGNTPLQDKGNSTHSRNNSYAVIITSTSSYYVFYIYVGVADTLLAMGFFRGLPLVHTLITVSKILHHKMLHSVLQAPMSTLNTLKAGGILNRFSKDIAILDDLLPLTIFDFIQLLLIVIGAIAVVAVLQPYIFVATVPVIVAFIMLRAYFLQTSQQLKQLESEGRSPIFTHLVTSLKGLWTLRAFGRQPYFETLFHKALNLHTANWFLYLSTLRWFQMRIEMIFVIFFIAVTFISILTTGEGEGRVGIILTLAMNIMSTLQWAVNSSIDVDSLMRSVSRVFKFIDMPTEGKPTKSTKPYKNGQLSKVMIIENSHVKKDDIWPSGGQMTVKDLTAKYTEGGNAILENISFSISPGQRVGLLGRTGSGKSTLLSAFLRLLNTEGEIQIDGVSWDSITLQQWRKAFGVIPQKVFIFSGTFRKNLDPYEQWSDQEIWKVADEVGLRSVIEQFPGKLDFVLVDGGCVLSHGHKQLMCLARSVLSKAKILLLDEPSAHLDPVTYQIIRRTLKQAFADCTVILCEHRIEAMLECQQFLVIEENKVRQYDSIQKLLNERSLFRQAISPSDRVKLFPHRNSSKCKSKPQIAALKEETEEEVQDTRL

| Structure (SMILES) | EC50 [1] [µM] | EC50 [2] [µM] | Maximum % activity (with co-corrector) | Maximum % activity (without co-corrector) |
| --- | --- | --- | --- | --- |
| COc1ccc(C(F)(F)F)cc1C(O)CO[C@H]1[C@H](C(C)(C)C)[C@@H](C(=O)O)N(C(=O)[C@@H]2CCCCO2)[C@H]1c1ccccc1C (stereo partly drawn) [Example 268, (2S,3R,4S,5S)-3-tert-butyl-4-{2-hydroxy-2-[2-methoxy-5-(trifluoromethyl)phenyl]ethoxy}-5-(2-methylphenyl)-1-[(2S)-oxane-2-carbonyl]pyrrolidine-2-carboxylic acid] | 1 to 10 | 1 to 10 | +++ (≥350) | + (<100) |
| COc1ccc(C(F)(F)F)cc1C(CO[C@H]1[C@H](C(C)(C)C)[C@@H](C(=O)O)N(C(=O)[C@@H]2CCCCO2)[C@H]1c1ccccc1C)OC (stereo partly drawn) [Example 269, (2S,3R,4S,5S)-3-tert-butyl-4-{2-methoxy-2-[2-methoxy-5-(trifluoromethyl)phenyl]ethoxy}-5-(2-methylphenyl)-1-[(2S)-oxane-2-carbonyl]pyrrolidine-2-carboxylic acid] | 1 to 10 | < 1 | +++ (≥350) | +++ (≥200) |
| COc1ncc(C2CCC2)cc1CO[C@H]1[C@H](C(C)(C)C)[C@@H](C(=O)O)N(C(=O)C2(C(F)(F)F)CC2)[C@H]1c1cccnc1OC(C)C [Example 275, (2S,3R,4S,5S)-3-tert-butyl-4-[(5-cyclobutyl-2-methoxypyridin-3-yl)methoxy]-5-{2-[(propan-2-yl)oxy]pyridin-3-yl}-1-[1-(trifluoromethyl)cyclopropane-1-carbonyl]pyrrolidine-2-carboxylic acid] | > 10 | 1 to 10 | ++ (≥150 and <350) | + (<100) |
| COc1ncc(C2CCC2)cc1CO[C@H]1[C@H](C(C)(C)C)[C@@H](C(=O)O)N(C(=O)C2(C(F)(F)F)CCCC2)[C@H]1c1cccnc1OC(C)C [Example 276, (2S,3R,4S,5S)-3-tert-butyl-4-[(5-cyclobutyl-2-methoxypyridin-3-yl)methoxy]-5-{2-[(propan-2-yl)oxy]pyridin-3-yl}-1-[1-(trifluoromethyl)cyclopentane-1-carbonyl]pyrrolidine-2-carboxylic acid] | > 10 | < 1 | ++ (≥150 and <350) | + (<100) |
| COc1ncc(C(F)(F)F)cc1C#CCO[C@H]1[C@H](C(C)(C)C)[C@@H](C(=O)O)N(C(=O)OC(C)C)[C@H]1c1ccccc1 [Example 277, (2S,3R,4S,5S)-3-tert-butyl-4-({3-[2-methoxy-5-(trifluoromethyl)pyridin-3-yl]prop-2-yn-1-yl}oxy)-5-phenyl-1-{[(propan-2-yl)oxy]carbonyl}pyrrolidine-2-carboxylic acid] | < 1 | < 1 | +++ (≥350) | + (<100) |
| CCc1ccccc1[C@H]1[C@@H](OCC#Cc2cc(C(F)(F)F)cnc2OC)[C@H](C(C)(C)C)[C@@H](C(=O)O)N1C(=O)[C@@H]1CCCCO1 [Example 278, (2S,3R,4S,5S)-3-tert-butyl-5-(2-ethylphenyl)-4-({3-[2-methoxy-5-(trifluoromethyl)pyridin-3-yl]prop-2-yn-1-yl}oxy)-1-[(2S)-oxane-2-carbonyl]pyrrolidine-2-carboxylic acid] | 1 to 10 | < 1 | +++ (≥350) | ++ (≥100 and <200) |
| CC(C)Oc1ncccc1[C@H]1[C@@H](OCc2coc3ccc(C(F)(F)F)cc23)[C@H](C(C)(C)C)[C@@H](C(=O)O)N1C(=O)C1CCCCC1 [Example 279, (2S,3R,4S,5S)-3-tert-butyl-1-(cyclohexanecarbonyl)-5-{2-[(propan-2-yl)oxy]pyridin-3-yl}-4-{[5-(trifluoromethyl)-1-benzofuran-3-yl]methoxy}pyrrolidine-2-carboxylic acid] | < 1 | < 1 | +++ (≥350) | ++ (≥100 and <200) |

Continued, values first:

| EC50 [1] [µM] | EC50 [2] [µM] | Maximum % activity (with co-corrector) | Maximum % activity (without co-corrector) | Structure (SMILES) |
| --- | --- | --- | --- | --- |
| < 1 | < 1 | +++ (≥350) | +++ (≥200) | COc1ccc(C(C)(C)C)cc1CO[C@H]1[C@H](C(C)(C)OC)[C@@H](C(=O)O)N(C(=O)[C@@H]2CCCCO2)[C@H]1c1ccccc1C(C)C [Example 270, (2S,3R,4S,5S)-4-[(5-tert-butyl-2-methoxyphenyl)methoxy]-3-(2-methoxypropan-2-yl)-1-[(2S)-oxane-2-carbonyl]-5-[2-(propan-2-yl)phenyl]pyrrolidine-2-carboxylic acid] |
| < 1 | < 1 | +++ (≥350) | ++ (≥100 and <200) | COc1ncc(C(F)(F)F)cc1CO[C@H]1[C@H](C(C)(C)C)[C@@H](C(=O)O)N(C(=O)O[C@@H](C)C(F)(F)F)[C@H]1c1cccnc1OC(C)C [Example 271, (2S,3R,4S,5S)-3-tert-butyl-4-{[2-methoxy-5-(trifluoromethyl)pyridin-3-yl]methoxy}-5-{2-[(propan-2-yl)oxy]pyridin-3-yl}-1-({[(2S)-1,1,1-trifluoropropan-2-yl]oxy}carbonyl)pyrrolidine-2-carboxylic acid] |
| < 1 | < 1 | +++ (≥350) | +++ (≥200) | COc1ccc(C(F)(F)F)cc1[C@@H](C)CO[C@H]1[C@H](C(C)(C)C)[C@@H](C(=O)O)N(C(=O)[C@@H]2CCCCO2)[C@H]1c1ccccc1C [Example 272, (2S,3R,4S,5S)-3-tert-butyl-4-{(2R)-2-[2-methoxy-5-(trifluoromethyl)phenyl]propoxy}-5-(2-methylphenyl)-1-[(2S)-oxane-2-carbonyl]pyrrolidine-2-carboxylic acid] |
| < 1 | < 1 | +++ (≥350) | +++ (≥200) | COc1ccc(C(F)(F)F)cc1[C@H](C)CO[C@H]1[C@H](C(C)(C)C)[C@@H](C(=O)O)N(C(=O)[C@@H]2CCCCO2)[C@H]1c1ccccc1C [Example 273, (2S,3R,4S,5S)-3-tert-butyl-4-{(2S)-2-[2-methoxy-5-(trifluoromethyl)phenyl]propoxy}-5-(2-methylphenyl)-1-[(2S)-oxane-2-carbonyl]pyrrolidine-2-carboxylic acid] |
| < 1 | < 1 | +++ (≥350) | +++ (≥200) | COc1ccc(C(C)(C)C)cc1CO[C@H]1[C@H](C(C)(C)C)[C@@H](C(=O)O)N(C(=O)O[C@@H](C)C(F)(F)F)[C@H]1c1cccnc1OC(C)C [Example 274, (2S,3R,4S,5S)-3-tert-butyl-4-[(5-tert-butyl-2-methoxyphenyl)methoxy]-5-{2-[(propan-2-yl)oxy]pyridin-3-yl}-1-({[(2S)-1,1,1-trifluoropropan-2-yl]oxy}carbonyl)pyrrolidine-2-carboxylic acid] |
